{"source": "patent US6946442B2", "about": "“Method of hastening cervical ripening” (priority 1994, dated 2005)", "key": {"VEGF protein expression": {"system": "VEGF protein expression", "test": "Western blot analysis, VEGF protein expression in non-pregnant cervical explants and culture medium", "format": "cell-based, human", "experimental": "Human uterine non-pregnant cervix tissue was obtained from non-malignant hysterectomies. The samples were maintained in phenol red free culture media DMEM supplemented with penicillin (1%), streptomycin (1%) and L-Glutamine (1%) and transferred to the laboratory on ice. The biopsies were washed in ice-cold saline solution then cut into small sections 1 to 2 mm and incubated in the above culture medium in 60×15 mm petri dishes at 37° C. in 5% CO2/95% air. Progesterone (P2) was added to the culture medium at concentrations of 10^−4, 10^−6 and 10^−8 M. 17−β Estradiol (E2) was added to the culture medium either alone at concentrations of 10^−6, […] M, followed by addition of Progesterone (P2) at concentrations ranging from 10^31 4 to 10^−8 M. The effect of VEGF165 (1, 10, 50, 100, 200 ng/ml) and PAF (10^−6−10^−10 M) in the non-pregnant cervical explants was also investigated. This culture system was chosen because it allows study of the intact tissues in their own matrix and avoids the potentially artefact-producing procedures of cell dispersion and culture.\nCervical tissue, after having been stimulated with VEGF165 or PAF for 24 hours or with the ovarian steroid hormones, 17β-estradiol (E2) and progesterone (P2), for 48 hours, was washed twice in ice-cold PBS and homogenised in ice-cold, high salt lysis buffer (containing 0.4 M KCl, 20 mM HEPES, 1 mM DTT, 20% glycerol, 0.5 mg/ml Bacitracin, 40 μg/ml PMSF, 5 μg/ml Peptastin, 5 μg/ml Leupeptin). Homogenates were centrifuged at 12,000 revolutions/min for 15 minutes and the supernatants containing extracted protein were collected. The culture medium used to incubate the tissue with or without E2, P2 or E2+P2 was also collected, centrifuged. To the supernatant, 3 volumes of ethanol were added and stored at −70° C. for at least 5 hours. Then, the culture medium/ethanol suspension was centrifuged at 10,000 rpm for 10 min and the pellet containing the protein was resuspended in lysis buffer. Total protein, extracted from both tissue and medium, was quantified with the Bio-Rad protein assay, and 500 ng of protein from each sample was diluted in loading buffer (containing 0.02 M Tris-HCl, 0.002 M EDTA, 2% SDS, 10% mercaptoethanol, 20% glycerol, bromophenol blue). Samples were subjected to electrophoresis in a 12% polyacrylamide gel with 5% stacking gel and transferred overnight at 36V onto a nitrocellulose membrane. The membrane was blocked at RT with 1% skimmed milk in Tris-buffered saline solution before incubation with an antiserum (diluted 1:500) directed against the rabbit VEGF165 at 4° C. After a 15 min. wash and 2×5 min. washes with Tris-buffered saline solution at room temperature (RT), the membrane was incubated in an anti-rabbit secondary Ab conjugated to alkaline phosphatase. In case of Western blotting experiments for Connexin-43, the membrane was blocked overnight at 4° C. in blocking buffer (1% BSA in 10 mM Tris pH 7.5, 100 mM NaCl, 0.1% Tween 20), before incubation with a monoclonal antibody directed against Connexin-43 again overnight at 4° C. After a 6×5 min. washes with Tris-buffered saline solution, the membrane was incubated in a mouse secondary Ab conjugated to alkaline phosphatase. A chemiluminescence system (ECL-Amersham) was used to visualise the presence of VEGF165, Connexin-43 or Flt-1 protein. This is a highly sensitive and quantitative assay for detecting proteins immobilised on membranes.\nCervical tissue explants in culture medium were exposed to various concentrations of the ovarian steroid hormones, 17β-estradiol (E2) and progesterone (P2), for 48 hours, followed by extraction of protein from the tissue as well as the culture medium."}, "VEGF165 mRNA": {"system": "VEGF165 mRNA", "test": "Northern blot hybridisation, VEGF165 mRNA in non-pregnant cervical tissue explants", "format": "cell-based, human", "conditions": "48 hours", "experimental": "Human uterine non-pregnant cervix tissue was obtained from non-malignant hysterectomies. The samples were maintained in phenol red free culture media DMEM supplemented with penicillin (1%), streptomycin (1%) and L-Glutamine (1%) and transferred to the laboratory on ice. The biopsies were washed in ice-cold saline solution then cut into small sections 1 to 2 mm and incubated in the above culture medium in 60×15 mm petri dishes at 37° C. in 5% CO2/95% air. Progesterone (P2) was added to the culture medium at concentrations of 10^−4, 10^−6 and 10^−8 M. 17−β Estradiol (E2) was added to the culture medium either alone at concentrations of 10^−6, 10^−7 and 10^−8 M or for 2 hours to prime the cervical explants at a concentration of 10^−7 M, followed by addition of Progesterone (P2) at concentrations ranging from 10^31 4 to 10^−8 M. The effect of VEGF165 (1, 10, 50, 100, 200 ng/ml) and PAF (10^−6−10^−10 M) in the non-pregnant cervical explants was also investigated. This culture system was chosen because it allows study of the intact tissues in their own matrix and avoids the potentially artefact-producing procedures of cell dispersion and culture. In this system, the cells remain intact for at least 5 days. RNA (40 μg/lane) was loaded onto a 1.2% agarose/formaldehyde gel, electrophoretically separated, transferred onto Hybond nylon membranes, and immobilised by exposure to U.V. light for 5 min. Membranes were prehybridized at 42° C. for 8 hours in a solution containing 50% formamide, 5×SSC, 5×Denhardt's solution, 0.5% SDS and salmon sperm DNA at 150 μg/ml. The VEGF165 cDNA was labelled with [α-^32P]dCTP by random-primer extension. 18s oligonucleotide probe labelled by T4 polynucleotide kinase with […] was used to determine the relative amount of RNA loaded in each lane by rehybridizing the blots that have previously been probed with VEGF165. Hybridisation was done under the same conditions with the labelled probe for 18 hours at 42° C. […]"}, "pregnant rats": {"system": "pregnant rats", "test": "Preterm delivery induced by progesterone receptor antagonist in pregnant rats", "format": "in vivo, Sprague-Dawley rats", "conditions": "10 mg s.c. on day 19, in 24 h", "experimental": "Treatments (Protocols A and B): Mouse recombinant VEGF164 (the murine equivalent of human VEGF165) was dissolved at a concentration of 10 and 100 ng/ml gel. Control animals received applications of gel only. Some animals were injected on day 19 s.c. with 10 mg progesterone receptor antagonist RU486, a protocol which induces in 24 h preterm delivery in 80% of animals."}, "Connexin-43 [1]": {"system": "Connexin-43", "conditions": "non-pregnant myometrial explants, FIG. 11A", "experimental": "Cervical tissue, after having been stimulated with VEGF165 or PAF for 24 hours or with the ovarian steroid hormones, 17β-estradiol (E2) and progesterone (P2), for 48 hours, was washed twice in ice-cold PBS and homogenised in ice-cold, high salt lysis buffer (containing 0.4 M KCl, 20 mM HEPES, 1 mM DTT, 20% glycerol, 0.5 mg/ml Bacitracin, 40 μg/ml PMSF, 5 μg/ml Peptastin, 5 μg/ml Leupeptin). Homogenates were centrifuged at 12,000 revolutions/min for 15 minutes and the supernatants containing extracted protein were collected. The culture medium used to incubate the tissue with or without E2, P2 or E2+P2 was also collected, centrifuged. To the supernatant, 3 volumes of ethanol were added and stored at −70° C. for at least 5 hours. Then, the culture medium/ethanol suspension was centrifuged at 10,000 rpm for 10 min and the pellet containing the protein was resuspended in lysis buffer. Total protein, extracted from both tissue and medium, was quantified with the Bio-Rad protein assay, and 500 ng of protein from each sample was diluted in loading buffer (containing 0.02 M Tris-HCl, 0.002 M EDTA, 2% SDS, 10% mercaptoethanol, 20% glycerol, bromophenol blue). […] This is a highly sensitive and quantitative assay for detecting proteins immobilised on membranes."}, "rat cervix": {"system": "rat cervix", "test": "Tensile properties (stress-strain, extensibility) of isolated cervix after intravaginal treatment of pregnant rats", "format": "in vivo, Sprague-Dawley rats", "conditions": "for cervical extensibility: 100 ng/ml gel intravaginally", "experimental": "Control animals received applications of gel only.\nThe tensile properties of the isolated cervix were evaluated using the Shimadzu EZ-Test instrumentation using a test regimen which mimicked the conditions during labour. Briefly, the cervix was suspended between two hooks by means of threads passed through the cervical canal. It was then placed in a 40 ml tissue bath containing 10 mM HEPES/PBS solution (pH=7.4) maintained at 25° C. […] Each cervix was allowed 30 min. to equilibrate. The lower hook was fixed while the upper hook was movable, to simultaneously record displacement and force with a sample rate of 20 Hz. […] The upper hook was moved until a small resistance of the tissue (20 mN) was recorded after which the tester automatically moved the upper hook to incrementally stretch the cervix in steps of 0.4 mm. at 1 min. intervals. Between subsequent stretches the hook rested for 1 min. allowing the cervix to accommodate. During the accommodation periods the cervix reverted back to a relaxed state, therefore diminishing the opposed resistance and thus the tension recorded by the tester. FIG. 15 illustrates a typical stress-strain plot of a rat cervix. […] At YP permanent morphological changes and breaks in the material begin to occur. Break-point (BP) is the moment where the tissue completely breaks and the load abruptly falls toward zero. To quantify the elastic behaviour of the cervix (cervical resistance), straight lines are fitted through the linear portion of the force versus displacement curve. The slopes of the upper, lower and mid-point regression lines that are related to Young's modulus for elastic materials were used to best characterise the tensile properties of the sample. A larger slope indicates a higher resistance to dilation, therefore lower extensibility."}, "Connexin-43 [2]": {"system": "Connexin-43", "test": "Western blot, Connexin-43 expression in non-pregnant cervical explants", "format": "cell-based, human", "experimental": "Human uterine non-pregnant cervix tissue was obtained from non-malignant hysterectomies. The samples were maintained in phenol red free culture media DMEM supplemented with penicillin (1%), streptomycin (1%) and L-Glutamine (1%) and transferred to the laboratory on ice. The biopsies were washed in ice-cold saline solution then cut into small sections 1 to 2 mm and incubated in the above culture medium in 60×15 mm petri dishes at 37° C. in 5% CO2/95% air. Progesterone (P2) was added to the culture medium at concentrations of 10^−4, 10^−6 and 10^−8 M. 17−β Estradiol (E2) was added to the culture medium either alone at concentrations of 10^−6, 10^−7 and 10^−8 M or for 2 hours to prime the cervical explants at a concentration of 10^−7 M, followed by addition of Progesterone (P2) at concentrations ranging from 10^31 4 to 10^−8 M. The effect of VEGF165 (1, 10, 50, 100, 200 ng/ml) and PAF (10^−6−10^−10 M) in the non-pregnant cervical explants was also investigated. This culture system was chosen because it allows study of the intact tissues in their own matrix and avoids the potentially artefact-producing procedures of cell dispersion and culture. In this system, the cells remain intact for at least 5 days."}}, "data": [{"compound": "C[C@]12CC[C@@H]3c4ccc(O)cc4CC[C@H]3[C@@H]1CC[C@@H]2O", "note": "[17β-estradiol]", "values": [{"measurement": "secreted forms of VEGF in the culture medium", "setting": "VEGF protein expression; 17β-estradiol, 48 hours, culture medium", "result": "up-regulates"}, {"measurement": "VEGF protein in the tissue itself", "setting": "VEGF protein expression; 17β-estradiol, 48 hours, tissue", "result": "no effect"}, {"measurement": "VEGF mRNA compared to Control", "setting": "VEGF165 mRNA; 17β-estradiol alone, non-pregnant cervical explants", "result": "up-regulates"}]}, {"compound": "CC#C[C@]1(O)CC[C@H]2[C@@H]3CCC4=CC(=O)CCC4=C3[C@@H](c3ccc(N(C)C)cc3)C[C@@]21C", "note": "[RU486]", "values": [{"measurement": "preterm delivery", "setting": "pregnant rats", "result": "80 % of animals"}]}, {"compound": "CC(=O)[C@H]1CC[C@H]2[C@@H]3CCC4=CC(=O)CC[C@]4(C)[C@H]3CC[C@]12C", "note": "[progesterone]", "values": [{"measurement": "VEGF protein expression in the culture medium", "setting": "VEGF protein expression; explants primed with 17β-estradiol for 4 hours, then increasing concentration of progesterone, culture medium", "result": "dose-dependent increase"}, {"measurement": "VEGF protein expression in the tissue", "setting": "VEGF protein expression; explants primed with 17β-estradiol for 4 hours, then increasing concentration of progesterone, tissue", "result": "dose-dependent increase"}, {"measurement": "VEGF protein in the culture medium compared with Control", "setting": "VEGF protein expression; progesterone at 10^−4 M, 48 hours, culture medium", "result": "down-regulated"}, {"measurement": "VEGF protein in the tissue itself compared with Control", "setting": "VEGF protein expression; progesterone at 10^−4 M, 48 hours, tissue", "result": "down-regulated"}, {"measurement": "VEGF mRNA", "setting": "VEGF165 mRNA; progesterone at 10^−4 M in the presence of 10^−7 M 17β-estradiol", "result": "down-regulated"}, {"measurement": "VEGF mRNA", "setting": "VEGF165 mRNA; progesterone at 10^−4 M", "result": "down-regulated"}]}, {"compound": "VEGF", "values": [{"measurement": "connexin-43 expression in myometrial explants", "setting": "Connexin-43 [1]", "result": "up-regulation"}, {"measurement": "slope of stress-strain curve", "setting": "rat cervix; 10 ng/ml gel intravaginally, protocol B (day 16 to day 20), significant only when applied later in pregnancy", "result": "statistically significant decrease"}, {"measurement": "cervical extensibility", "setting": "rat cervix; protocol A (day 12 to day 16)", "result": "significantly increased"}, {"measurement": "cervical extensibility", "setting": "rat cervix; protocol B (day 16 to day 20)", "result": "significantly increased"}, {"measurement": "connexin-43 expression in cervical explants", "setting": "Connexin-43 [2]; non-pregnant cervical explants, FIG. 11B", "result": "up-regulation"}]}, {"compound": "platelet-activating factor [PAF]", "values": [{"measurement": "VEGF expression in non-pregnant cervix", "setting": "VEGF protein expression; PAF at various concentrations, 24 hours", "result": "increases"}, {"measurement": "connexin-43 expression in cervix", "setting": "Connexin-43 [2]; PAF at various concentrations, non-pregnant cervix, FIG. 12", "result": "up-regulation"}]}]}
